Measured values reported in patent US12419889B2, “Methods of treating chronic spontaneous urticaria using a bruton's tyrosine kinase inhibitor” (NOVARTIS AG, priority 2019, dated 2025).

Columns and labels:
BTK [1] = target: T1, BTK (Rattus norvegicus, UniProt Q5S255); experiment: BTK occupancy ex vivo immunoassay in rat tissues after oral dosing
T1 construct: Unoccupied BTK, as well as total BTK relative protein levels were determined in lysates of selected tissues; from tissue; host or cells: rat spleen, blood, lymph nodes, lung
T1 sequence (Q5S255 1-660): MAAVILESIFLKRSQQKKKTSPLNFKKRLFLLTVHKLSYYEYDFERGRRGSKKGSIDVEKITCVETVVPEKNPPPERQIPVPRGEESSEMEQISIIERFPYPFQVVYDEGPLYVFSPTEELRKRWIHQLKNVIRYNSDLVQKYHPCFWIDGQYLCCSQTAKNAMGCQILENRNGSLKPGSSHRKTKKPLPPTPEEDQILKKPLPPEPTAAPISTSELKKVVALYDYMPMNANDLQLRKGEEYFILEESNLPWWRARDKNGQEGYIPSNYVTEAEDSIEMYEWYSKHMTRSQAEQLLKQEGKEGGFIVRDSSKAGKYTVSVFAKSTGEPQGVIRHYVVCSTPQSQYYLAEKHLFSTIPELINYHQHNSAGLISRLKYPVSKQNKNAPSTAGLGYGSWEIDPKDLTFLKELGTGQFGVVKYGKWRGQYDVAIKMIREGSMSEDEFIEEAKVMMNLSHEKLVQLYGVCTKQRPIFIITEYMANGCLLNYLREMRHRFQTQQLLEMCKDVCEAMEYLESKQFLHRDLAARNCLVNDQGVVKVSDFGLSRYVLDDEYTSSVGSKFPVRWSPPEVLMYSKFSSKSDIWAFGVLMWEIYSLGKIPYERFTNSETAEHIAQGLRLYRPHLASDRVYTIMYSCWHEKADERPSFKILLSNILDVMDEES
Description: (§1) The in vivo PD effects of an irreversible BTK inhibitor like compound (I) are determined by the extent and duration of covalent BTK occupancy by the inhibitor. BTK occupancy after treatment with Compound of Formula (I) (also referenced to as Compound (I)) was measured in an ex vivo immunoassay. The fraction of unoccupied BTK protein was assayed after in vitro incubation with a covalent biotinylated BTK probe, since compound (I) and the probe bind to BTK in a mutually exclusive manner. Unoccupied BTK, as well as total BTK relative protein levels were determined in lysates of selected tissues and levels of unoccupied BTK were normalized to total BTK protein levels in the same samples.
From the experimental data it was apparent that a short transient systemic exposure of compound (I) is sufficient to achieve full BTK occupancy in several tissues at low oral doses of 1-3 mg/kg. […] This very low and transient systemic exposure is consistent with the PK/PD model typical of irreversible inhibitors.
The duration of BTK occupancy was determined in rats and mice after single oral dose of compound (I) for spleen, blood, lymph nodes and lung. […] The longer persistence of BTK occupancy in blood has been reported before (Advani et al 2013, J Clin Onc; 31(1):88-94).

[2] = test system: mast cell FcγRIII-mediated inflammation; experiment: Reverse passive Arthus (RPA) model, skin swelling; assay type: in vivo; settings: mouse RPA
Description: The duration of the PD effect in skin after single dose was assessed in the reverse passive Arthus (RPA) model of mast cell FcγRIII—mediated inflammation. In this RPA model, a polyclonal IgG antibody is injected locally into the dermis, while the soluble antigen is given systemically by i.v. injection. In this mouse model, mast cell FcγRIII has a dominant role with only minor contributions by the complement system (Hazenbos et al. 1998, journal of immunology, 161(6), pp. 3026; Hazenbos et al., Immunity, 1996, 5(2), pp. 181; Köhl & Gessner 1999, Molecular immunology, 36(13-14), pp. 893; Sylvestre & Ravetch 1996, Immunity, 5(4), pp. 387; Sylvestre & Ravetch 1994, Science, 265(5175), pp. 1095). It has been shown that genetic BTK deficient mice are protected in the passive Arthus skin reaction (Fiedler et al. 2011, blood, 117(4), pp. 1329).
(§2) Oral treatment with compound (I) at a single dose of 3, 10, 30 and 100 mg/kg, given 2 hours prior to induction of the RPA response, reduced skin swelling in a dose-related manner. […] (FIG. 2)
In this model, the inhibition of skin swelling was maximal when compound (I) was dosed 2 hours prior to eliciting the Arthus reaction. The effect diminished gradually and reached baseline when the Arthus reaction was triggered 45 hours or later after compound (I) dosing.

BTK [3] = target: T2, BTK (Mus musculus, UniProt P35991); experiment: BTK occupancy in spleen in mouse RPA and PCA models; assay type: in vivo; settings: mouse RPA, 5 h after dosing
T2 construct: from tissue; host or cells: mouse spleen
T2 sequence (P35991 whole entry): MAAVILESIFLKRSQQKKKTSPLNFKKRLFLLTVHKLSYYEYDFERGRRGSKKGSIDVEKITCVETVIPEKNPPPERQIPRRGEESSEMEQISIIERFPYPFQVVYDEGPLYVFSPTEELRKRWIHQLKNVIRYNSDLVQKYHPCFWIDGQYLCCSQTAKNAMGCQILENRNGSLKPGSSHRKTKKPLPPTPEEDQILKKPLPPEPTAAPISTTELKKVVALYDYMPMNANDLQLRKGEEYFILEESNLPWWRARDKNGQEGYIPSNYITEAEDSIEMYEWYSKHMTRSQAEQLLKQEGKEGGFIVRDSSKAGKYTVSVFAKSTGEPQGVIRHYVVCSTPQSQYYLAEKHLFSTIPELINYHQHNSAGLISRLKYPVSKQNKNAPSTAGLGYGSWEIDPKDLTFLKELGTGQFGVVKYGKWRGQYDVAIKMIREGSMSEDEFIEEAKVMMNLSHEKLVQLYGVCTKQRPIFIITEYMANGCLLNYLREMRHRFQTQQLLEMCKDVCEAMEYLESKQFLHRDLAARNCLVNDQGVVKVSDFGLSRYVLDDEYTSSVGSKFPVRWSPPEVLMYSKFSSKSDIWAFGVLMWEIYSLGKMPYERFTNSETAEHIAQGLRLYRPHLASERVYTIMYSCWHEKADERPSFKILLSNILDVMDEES
Description: as §1, §2
(§3) The effects of compound (I) on acute skin hypersensitivity were also assessed after two oral doses of compound (I) in the mouse of model of passive cutaneous anaphylaxis (PCA) (Ovary 1958). The mouse PCA model was used at a low dose of sensitizing IgE antibody to minimize complement-dependent anaphylatoxins (Schafer et al. 2013, The journal of allergy and clinical immunology, 131(2), pp. 541; Hata et al. 1998, Journal of Experimental Medicine, 187(8), pp. 1235). […] (FIG. 3). Spleen occupancy at 2.5 hours post last dose ranged from 89.1 to 99.7% (representing peak occupancy) (FIG. 4).

[4] = test system: passive cutaneous anaphylaxis (PCA); experiment: Passive cutaneous anaphylaxis (PCA) model, Evans blue extravasation; assay type: in vivo; settings: mouse PCA
Description: as §3

[5] = First-in-human study Part 3, food effect PK; assay type: in vivo
Description: Part 3 was an open-label, randomized, two-way cross-over, single dose study to assess food effects. In Part 3, each subject participated in a 28 day screening period (Day −29 to −2), 2 baseline (Day −1) and 2 treatment periods, each consisting of a single dose administration on Day 1 followed by safety and PK assessment up to Day 5. Treatment period 2 consisted of a follow-up visit and an end of study evaluation on Day 22 and 40, respectively. The two treatment periods were separated by a wash-out period of at least 18 days (+1-1 day).
Subjects were randomized to one of the 2 treatment sequences (Table 9) in the ratio of 1:1. Definition of treatment sequences for Part 3
Pharmacokinetic samples were obtained in blood and evaluated in all subjects at all dose levels. The samples from placebo subjects were not analyzed. The samples for PK assessments from subjects were collected at time points defined in the study. Compound (I) concentrations were determined in blood by a validated LC-MS/MS method.

[6] = Safety and tolerability in healthy volunteers; assay type: in vivo, human
Description: Standard safety monitoring was used throughout all study parts. A dedicated assessment of potential skin bruising events were included. All vital signs, physical examination and subject history, ECGs, adverse events, and laboratory safety parameters (blood chemistry, hematology and urinalysis) up to 96 hours post last dose as well as PK data from the previous dose group (if available) up to 48 hours post last dose were to be reviewed in a blinded fashion for each cohort before dose escalation. Summary safety reports of reported adverse events, clinical safety laboratory parameters, QTc and heart rate were provided after completion of each dose level.
For the analysis of adverse effects, the Placebo subjects from all SAD and MAD cohorts (2 per cohort) and separated by the SAD and MAD parts were pooled into one Placebo group (n=20 for SAD and n=16 for MAD) to be compared with each single compound (I) dose group (n=6 each) and the total compound (I) group (n=60 for SAD and n=48 for MAD). There were no apparent major differences in the demographic data between placebo and the active groups both for the SAD and MAD populations.

spleen BTK occupancy (BTK [1]; female rats, single oral dose 3 mg/kg): full | BTK occupancy half-life in spleen (BTK [1]; rat spleen, single oral dose, estimated): approximately 5 hours | BTK occupancy half-life in blood (BTK [1]; rats, single oral dose): approximately 87 hours | receptor occupancy at 3 mg/kg (BTK [3]; 3 mg/kg): 68.1% | receptor occupancy at 10 mg/kg (BTK [3]; 10 mg/kg): 82.1% | receptor occupancy at 30 mg/kg (BTK [3]; 30 mg/kg): 91.3% | receptor occupancy at 100 mg/kg (BTK [3]; 100 mg/kg): 99.3% | Tmax ([5]; human, whole blood, single oral dose 60 mg, fasted): 1 h | AUC0-24, GeoMean ([5]; single dose 60 mg, FAST): 0.18208 µg·h/mL | AUClast, GeoMean ([5]; single dose 60 mg, FAST): 0.17717 µg·h/mL | Tlast, GeoMean ([5]; single dose 60 mg, FAST): 9.66 h | Tlast, Mean ([5]; single dose 60 mg, FAST): 10.50 h | Tmax, Mean ([5]; single dose 60 mg, FAST): 1.02 h | Tlast, GeoMean ([5]; single dose 60 mg, FED): 9.25 h | Tlast, Mean ([5]; single dose 60 mg, FED): 9.50 h | higher AUC0-24 fed vs fasted ([5]; single oral dose 60 mg): 1.4 fold | lower Cmax fed vs fasted ([5]; single oral dose 60 mg): 1.25 fold
Structure (SMILES): C=CC(=O)N(C)CCOc1c(N)ncnc1-c1cc(F)cc(NC(=O)c2ccc(C3CC3)cc2F)c1C [Compound (I), N-(3-(6-Amino-5-(2-(N-methylacrylamido)ethoxy)pyrimidin-4-yl)-5-fluoro-2-methylphenyl)-4-cyclopropyl-2-fluorobenzamide]
time between dosing and Arthus trigger at which the effect reached baseline ([2]; single dose): ≥ 45 h | inhibition of skin swelling ([2]; single oral dose 3 mg/kg 2 hours prior to induction): 22.9 % inhibition | inhibition of skin swelling ([2]; single oral dose 10 mg/kg 2 hours prior to induction): 29.2 % inhibition | inhibition of skin swelling ([2]; single oral dose 30 mg/kg 2 hours prior to induction): 73.0 % inhibition | inhibition of skin swelling ([2]; single oral dose 100 mg/kg 2 hours prior to induction): 61.2 % inhibition | inhibition of skin edema (Evans blue extravasation) ([4]; two oral doses of 3 mg/kg 14 and 2 hours before challenge): 60.7% | inhibition of skin edema (Evans blue extravasation) ([4]; two oral doses of 10 mg/kg 14 and 2 hours before challenge): 66.9% | inhibition of skin edema (Evans blue extravasation) ([4]; two oral doses of 30 mg/kg 14 and 2 hours before challenge): 69.2% | inhibition of skin edema (Evans blue extravasation) ([4]; two oral doses of 100 mg/kg 14 and 2 hours before challenge): 87.4% | serious or severe adverse events related to intake ([6]; 0.5 mg to 600 mg): no serious or severe adverse event | tolerability ([6]; 0.5 mg to 600 mg, single dose or up to 18 days once or twice daily): well tolerated | safety assessment of the FIH study ([6]; dosing up to 600 mg): does not reveal significant safety concerns
